Test results: patent publication US9072778B2, “Treatment regimen for N-MYC, c-MYC, and L-MYC amplified and overexpressed tumors” (UNIVERSITY OF HAWAII, priority 2005, dated 2015)

Key:
Type in all cases: cell-based, human
[1] = tested on: NMB-7 cells; assay: Polyamine pool analysis in inhibitor-treated NMB-7 cells; conditions: DFMO = 5 mM, SAM486A = 10 μM, Spd = 10 μM
Description: (§1) Combined inhibition of both enzymes decreased polyamine pools to various degrees, and exogenous supplementation of Spd (10 μM) to cell cultures led to a substantial increase in Spd. […] In untreated control cells, the levels of Put and Spd decreased during exponential cell growth and proliferation (day 0 to day 3), which is also consistent with a decrease in ODC and AdoMetDC enzyme activities (FIGS. 3d and 3e). Spm levels decreased in untreated LAN-1 cells and remained the same in NMB-7 cells (Table 1).
(§2) Human NB cell lines were provided by Dr. Robert Seeger (LAN-1; University of California, Los Angeles, Calif.), Dr. Nai-Kong Cheung (NMB-7; Memorial Sloan-Kettering Cancer Center, NY), and the American Type Culture Collection (SK-N-SH; ATCC, Manassas, Va.). Cells were maintained in RPMI 1640 (Biosource, Rockeville, Md.) containing 10% heat-inactivated fetal bovine serum (FBS) (Invitrogen, Carlsbad, Calif.), penicillin (100 IU/ml) and streptomycin (100 μg/ml). If cells were treated with exogenous Spd, 1 mM of aminoguanidine was included as an inhibitor of serum polyamine oxidation. […] For growth and proliferation inhibition, polyamine pool, and cell cycle studies, 10 μM Spd was added together with inhibitors, and cells were assayed on days 2 and/or 3.
(§3) Intracellular polyamines were extracted from cell pellets by a method known in the art. In brief, cells were washed and centrifuged. After sonication and centrifugation, 250 μl of supernatant, 100 μl of saturated sodium carbonate, and 300 μl of 25 mg/ml dansyl chloride (5-dimethylamino-naphthalene-1-sulfonyl chloride) (Fluka, Switzerland) were mixed and analyzed via reverse phase HPLC using a C18 reverse-phase analytical column (Waters, Milford, Mass.). The effluent from the column was monitored at 510 nm (excitation at 330 nm). Polyamine levels were determined using appropriate standards. The samples were normalized in 0.2 N sodium hydroxide and the amount of total protein per sample was measured using the Bradford assay (70). Polyamine levels are expressed as nmol per mg of total cellular protein.

[2] = tested on: retinoblastoma protein Rb; assay: Western blot of Rb phosphorylation in inhibitor-treated NB cells; conditions: LAN-1 and NMB-7; days 2 and 3
Description: To further investigate the mechanism that regulates G1 arrest in LAN-1 and NMB-7 cells, and to define the changes in associated protein responses, the cell cycle-related proteins p21^Waf1/Cip1, p27^Kip1, p53, Rb, and MYCN in NB cell lysates were studied. Cells were analyzed on days 1, 2, and 3. Equal amounts of total protein were loaded in all experiments. Proteins were scanned and the ratio of hypophosphorylated Rb (pRb) (lower band):hyperphosphorylated Rb (ppRb) (upper band) was calculated (b). MYCN bands were quantified and normalized relative to β-actin. Values are presented as percentage (%) of controls of day 1, 2 or 3. (c). The data are representative of at least three independent experiments.
The retinoblastoma protein Rb can be regulated through the action of p27^Kip1. Rb phosphorylation reduces the levels of functional Rb/E2F repressor complexes and activates E2F-responsive promoters important for moving the cell through the G1/S phase of the cell cycle. […] Rb hypophosphorylation was further confirmed with total Rb showing a visible mobility shift from a hyperphosphorylated form (upper band) to a hypophosphorylated form (lower band). […] Hypophosphorylation of Rb is a known consequence of p27^Kip1 induction, and this is in strong agreement with our findings.

[3] = tested on: NMB-7 cells; assay: Cell cycle phase distribution (propidium iodide), NMB-7; conditions: DFMO = 5 mM, SAM486A = 10 μM, Spd = 10 μM, mean ± SD
Source text: (§4) This profile, which is typical for cell cycle arrest at G1, was enhanced by the combination of both inhibitors, with the majority of cells in G1 (˜71-73%), a reduced number of cells in S phase (˜20-28%), and a small portion in G2/M (˜2-7%).
as §2

[4] = tested on: p27^Kip1; assay: Western blot of p27Kip1 in inhibitor-treated NB cells; conditions: LAN-1 and NMB-7; 5 mM DFMO, 10 μM SAM486A; days 2 and 3, relative to untreated control
Description: To further investigate the mechanism that regulates G1 arrest in LAN-1 and NMB-7 cells, and to define the changes in associated protein responses, the cell cycle-related proteins p21^Waf1/Cip1, p27^Kip1, p53, Rb, and MYCN in NB cell lysates were studied. Cells were analyzed on days 1, 2, and 3. Equal amounts of total protein were loaded in all experiments. Proteins were scanned and the ratio of hypophosphorylated Rb (pRb) (lower band):hyperphosphorylated Rb (ppRb) (upper band) was calculated (b). MYCN bands were quantified and normalized relative to β-actin. Values are presented as percentage (%) of controls of day 1, 2 or 3. (c). The data are representative of at least three independent experiments. […] To test for the presence of the cdk inhibitor protein p21^Waf1/Cip1, identical experiments were conducted, but the protein could not be detected (not shown). Low levels of p21^Waf1/Cip1 in NB cells have been previously described (McKenzie et al., (2003). Cancer Res, 63, 3840-4, which is incorporated herein by reference in its entirety). Similarly, the tumor suppressor protein p53 was not detected (not shown), which is in agreement with previous findings that cell lines LAN-1 and NMB-7 are p53 deficient. In contrast, p53 was readily expressed in identical Western blot control experiments and detected by immunofluorescence using the p53 wild type cell line SK-N-SH (not shown).

[5] = tested on: LAN-1 cells; assay: Cell cycle phase distribution (propidium iodide), LAN-1; conditions: DFMO = 5 mM, SAM486A = 10 μM, Spd = 10 μM, mean ± SD
Source text: as §4, §2

[6] = tested on: LAN-1 cells; assay: Polyamine pool analysis in inhibitor-treated LAN-1 cells; conditions: DFMO = 5 mM, SAM486A = 10 μM, Spd = 10 μM
Description: as §1, §2, §3

Compound	Polyamine pools PUT ([1]; NMB-7, Day 2) [NMOL/MG TOTAL PROTEIN]	Polyamine pools SPD ([1]; NMB-7, Day 2) [NMOL/MG TOTAL PROTEIN]	Polyamine pools SPM ([1]; NMB-7, Day 2) [NMOL/MG TOTAL PROTEIN]	Polyamine pools PUT ([1]; NMB-7, Day 3) [NMOL/MG TOTAL PROTEIN]	Polyamine pools SPD ([1]; NMB-7, Day 3) [NMOL/MG TOTAL PROTEIN]	Polyamine pools SPM ([1]; NMB-7, Day 3) [NMOL/MG TOTAL PROTEIN]	Rb phosphorylation (Ser795, Ser807/811) [2]	Cell cycle G1 ([3]; NMB-7, day 2) [% TOTAL CELLS]	Cell cycle G2/M ([3]; NMB-7, day 2) [% TOTAL CELLS]	Cell cycle S ([3]; NMB-7, day 2) [% TOTAL CELLS]	Cell cycle G1 ([3]; NMB-7, day 3) [% TOTAL CELLS]	Cell cycle G2/M ([3]; NMB-7, day 3) [% TOTAL CELLS]	Cell cycle S ([3]; NMB-7, day 3) [% TOTAL CELLS]	p27^Kip1 protein levels [4]	Cell cycle G1 ([5]; LAN-1, day 2) [% TOTAL CELLS]	Cell cycle G2/M ([5]; LAN-1, day 2) [% TOTAL CELLS]	Cell cycle S ([5]; LAN-1, day 2) [% TOTAL CELLS]	Cell cycle G1 ([5]; LAN-1, day 3) [% TOTAL CELLS]	Cell cycle G2/M ([5]; LAN-1, day 3) [% TOTAL CELLS]	Cell cycle S ([5]; LAN-1, day 3) [% TOTAL CELLS]	further results
N=C(N)c1cccc2c1CC/C2=N\N=C(N)N [SAM486A, 4-amidinoindan-1-one 2′-amidinohydrazone]	69.6	5.6	3.9	259.5	5.5	3.6	much less pronounced	54.1 ± 4.3	9.3 ± 3.2	36.6 ± 6.0	56.4 ± 6.5	8.5 ± 1.4	35.2 ± 7.0	did not alter p27^Kip1 levels	58.7 ± 8.3	9.6 ± 3.2	31.7 ± 6.8	53.3 ± 5.1	9.3 ± 2.0	37.4 ± 3.5	Polyamine pools PUT ([6]; LAN-1, Day 2): 48.5 NMOL/MG TOTAL PROTEIN; Polyamine pools SPD ([6]; LAN-1, Day 2): 5.5 NMOL/MG TOTAL PROTEIN; Polyamine pools SPM ([6]; LAN-1, Day 2): 4.2 NMOL/MG TOTAL PROTEIN; Polyamine pools PUT ([6]; LAN-1, Day 3): 43.7 NMOL/MG TOTAL PROTEIN; Polyamine pools SPD ([6]; LAN-1, Day 3): 5.0 NMOL/MG TOTAL PROTEIN; Polyamine pools SPM ([6]; LAN-1, Day 3): 3.5 NMOL/MG TOTAL PROTEIN
NCCC[C@](N)(C(=O)O)C(F)F [DFMO, α-difluoromethylornithine]	0.1	1.9	9.3	0.0	1.4	8.6	strong hypophosphorylation of Rb	60.3 ± 3.9	8.4 ± 2.9	31.3 ± 6.5	58.8 ± 2.6	10.2 ± 3.9	31.0 ± 6.3	increased endogenous levels of cdk inhibitor protein p27^Kip1	62.1 ± 10.4	11.5 ± 3.0	26.4 ± 7.5	63.1 ± 12.2	6.2 ± 4.1	30.8 ± 8.2	Polyamine pools PUT ([6]; LAN-1, Day 2): 0.3 NMOL/MG TOTAL PROTEIN; Polyamine pools SPD ([6]; LAN-1, Day 2): 2.2 NMOL/MG TOTAL PROTEIN; Polyamine pools SPM ([6]; LAN-1, Day 2): 8.7 NMOL/MG TOTAL PROTEIN; Polyamine pools PUT ([6]; LAN-1, Day 3): 0.0 NMOL/MG TOTAL PROTEIN; Polyamine pools SPD ([6]; LAN-1, Day 3): 1.9 NMOL/MG TOTAL PROTEIN; Polyamine pools SPM ([6]; LAN-1, Day 3): 8.1 NMOL/MG TOTAL PROTEIN
